According to US9921212B2, “Preventive and therapeutic drug for cartilaginous hyperplasia and method of screening for the same” (KYOTO UNIVERSITY, priority 2014, dated 2018):

What was measured:
[1] = tested on: mutant-type chondroprogenitor cells; test: 3D pellet culture, size of cartilaginous pellets (Alcian Blue stained area), mutant-type; assay type: cell-based, human; details: added during 3D pellet culture
Description: Chondroprogenitor cells obtained by the above method were cultured in a cartilage induction medium containing 5 ng/mL FGF2 and 10 ng/ml TGFβ3 for 3 days. Then, 2.5×10^5 cells were centrifuged to form a pellet, followed by culture in a cartilage induction medium containing 0.5 ml of 40 ng/ml PDGF-BB and 1% FCS, as in the case of 2D micromass culture. Six days later, 10 ng/ml TGFβ3 was further added for culture. Ten days later, PDGF-BB was substituted with 50 ng/ml BMP4 (WAKO). 3D pellet culture was mained at 37° C. in 5% CO2 for 28 days.
In order to examine the chondrocytes induced via 2D micromass culture and those induced via 3D pellet culture, the cells obtained by 2D micromass culture were fixed with 4% paraformaldehyde (PFA) for 1 hour and stained with 1% Alcian Blue (pH 1.0) (Sigma-Aldrich), and the cells obtained by 3D pellet culture were fixed with 4% paraformaldehyde (PFA) for 1 hour and stained with 0.1% Alcian Blue (pH 1.0) (Sigma-Aldrich). Further, immunostaining was carried out using an anti-COL2 antibody (Thermo Scientific). Alcian blue is a reagent for detecting an extracellular matrix secreted by chondrocytes, and COL2 is a gene that is expressed in a chondrocyte-specific manner.
Further, the influence of adenylate cyclase was examined with the addition of forskolin and SQ22536 during 3D pellet culture. […]

human SOX9 promoter = human SOX9 promoter luciferase reporter activity in chondroprogenitor cells; assay type: cell-based; details: mutant-type chondroprogenitor cells, 10 μM, 24 hours
From the text: In order to examine SOX9 regulation, human SOX9 promoter activity in chondroprogenitor cells was confirmed. A reporter construct prepared by inserting a −927- to +84-bp human SOX9 promoter region (transcription start site: 0) into a pGL3-luciferase reporter plasmid (Promega) in accordance with Ushita M et al., Osteoarthritis and cartilage/OARS, Osteoarthritis Research Society. 2009; 17(8): 1065-75 was used for confirmation (FIG. 7A and Table 2). Chondroprogenitor cells obtained by the above method were seeded on a 6-well plate (50000 cells/well). A FuGENE 6 transfection reagent was used for transfection (2 μg DNA/well). Twenty four hours later, luciferase activity was determined using a Dual-Luciferase Reporter Assay Kit (Promega) and a Centro XS^3 LB 960 Microplate Luminometer (BERTHOLD) for calculation of promoter activity. […] Next, in order to identify mutation of a site responsible for NLRP3-dependent responsiveness, reporter constructs each having a mutation in an NFAT-binding sequence, an AP-1-binding sequence, an NF-κB-binding sequence, an Sp1-binding sequence, or an CREB/ATF-binding sequence were prepared as listed in Table 3. These mutated reporter constructs were transfected into chondroprogenitor cells in the above manner to confirm promoter activity. […]

SOX9 [2] = test: mRNA expression of SOX9 in chondroprogenitor cells with forskolin and SQ22536 added; assay type: cell-based, human; details: wild-type and mutant-type chondroprogenitor cells
Description: (§1) mRNA was isolated from each cell using an RNeasy Mini Kit (Qiagen). cDNA was synthesized via reverse transcription using 1 μg of the obtained total RNA as a template and a Superscript III reverse transcriptase (Invitrogen). A standard curve for quantitative real-time PCR was created to conduct analysis. Real-time PCR analysis was conducted using a Power SYBR Green qPCR mastermix (Invitrogen) and a StepOne real-time PCR system (ABI) for quantitative determination.
In order to examine whether or not the […] signal transduction pathway is involved in cartilaginous hyperplasia, analysis was conducted using forskolin, which is an adenylate cyclase activator, and SQ22536, which is an adenylate cyclase inhibitor. This test was conducted by introducing a human SOX9 promoter into chondroprogenitor cells, immediately treating the cells with 10 μM forskolin (CALBIOCHEM) or 10 μM SQ22536 (Sigma-Aldrich), and incubating cells for 24 hours so as to determine luciferase activity. As a result, the SOX9 promoter activity in mutant-type chondroprogenitor cells treated with forskolin increased to a level 2.3 times that of mutant-type chondroprogenitor cells (control) treated with a base (DMSO) (FIG. 7D). Meanwhile, the SOX9 promoter activity in mutant-type chondroprogenitor cells treated with SQ22536 decreased to a level half that in the control (FIG. 7D).

[3] = tested on: mutant-type iPSC-derived chondrocytes; test: 2D micromass culture with inhibitor added, cartilaginous hyperplasia (pellet size, GAG); assay type: cell-based, human; details: 10 μM or 1 μg/mL
Description: (§2) Chondroprogenitor cells (1.5×10^5 cells) obtained via the above method were suspended in a cartilage induction medium containing 40 ng/ml PDGF-BB and 1% FCS and the suspension was spotted in the form of […] drops on a fibronectin-coated 24-well plate (BD), followed by culture. In this case, the medium was replaced every three days. Six days later, 10 ng/ml TGFβ3 was further added for culture. Ten days after the start of 2D micromass culture, PDGF-BB was substituted with 50 ng/ml BMP4 (WAKO). 2D micromass culture was performed at 37° C. in 5% CO2 for 14 days.
Subsequently, quantitative analysis of the amount of DNA and the glycosaminoglycan production amount after chondrocyte differentiation was conducted. The amount of DNA was determined using a Pico Green dsDNA Quantitation kit (Invitrogen) in the manner described in Nasu A, et al., PloS one. 8(1): e53771 (2013). The extracellular matrix production amount was determined using Blyscan glycosaminoglycan Assay (Biocolor) in accordance with the manufacturer's protocol. As a result, no difference in the amount of DNA in chondrocytes was found between wild-type iPSC-derived cartilage tissue and mutant-type iPSC-derived cartilage tissue in both cases of 2D micromass culture and 3D pellet culture (FIGS. 3B and 3C). […]

SOX9 [4] = test: 2D micromass culture with inhibitor added, SOX9 expression; assay type: cell-based, human; details: 10 μM or 1 μg/mL
Description: as §2, §1
Further, 2D micromass culture was performed with the addition of 10 μM or 1 μg/mL Ac-YVAD-CHO. As a result, there was no influence in cartilaginous hyperplasia (FIGS. 6A, 6B, 6D, 6E, 6F, and 6H) or SOX9 expression (FIGS. 6C and 6G).

Nc1ncnc2c1ncn2C1CCCO1 (stereo not shown) [SQ22536, 9-(tetrahydro-2-furanyl)-adenine]
size, decrease relative to control treated with a base (DMSO) [1]: 2.1 times less
SOX9 promoter activity, decrease relative to control treated with a base (DMSO) (human SOX9 promoter): half
effect on mRNA expression of SOX9, relation to SOX9 promoter activity data (SOX9 [2]): correlated

C=C[C@@]1(C)CC(=O)[C@]2(O)[C@@]3(C)[C@@H](O)CCC(C)(C)[C@@H]3[C@H](O)[C@H](OC(C)=O)[C@@]2(C)O1 [forskolin]
size, increase relative to control treated with a base (DMSO) [1]: 2.0 times
SOX9 promoter activity, increase relative to control treated with a base (DMSO) (human SOX9 promoter): 2.3 times

Ac-YVAD-CHO
influence in cartilaginous hyperplasia [3]: no influence
influence in SOX9 expression (SOX9 [4]): no influence
